Measured values taken from US8703975B2, “Aryl (ethanoic) propanoic acid ascorbyl ester, preparation method thereof and medicament containing the same” (Wuxi Hongrui Bio-Pharma-Tech Co., Ltd., priority 2009, dated 2014).

How the values were obtained:
[1] = Solubility in solvents and water; format: physicochemical
[2] = system: Arteriovenous Loop Thrombus; assay: Arteriovenous loop thrombus in rats, thrombus wet weight and inhibition rate; format: in vivo; details: 5.4 mg·kg^−1 by gavage for 3 days
Procedure: Normal rats, half male and half female, were randomly grouped according to table 1. The administration group was given water solution of Sodium Salt L-ascorbic acid-6-O—(S)-ibuprofen ester (pH 7.4) by gavage and the control group was given equivalent pH normal saline for continuous 3 days. The rat was intraperitoneally injected with 350 mg of 8% chloral hydrate per kg for anesthesia 1 h after the last administration, and then fixed in the supine position to separate the right common carotid artery and the left external jugular vein. An early weighed No. 7 operation line (about 8 cm long) was placed in the middle of a 10 cm long polyethylene tube, and then the tube was filled with normal saline and both ends of the tube were connected with an intubation filled with heparin (about 3 cm long), in which one end was inserted into the jugular vein, and the other end was inserted into the common carotid artery. After opening the artery clip, the in vitro loop flow was formed. The blood flow was interrupted after 15 min followed by quickly taking the thrombus and weighing. […]
Statistical analysis: the experimental data was represented as x±s, and the significance of the differences was determined with one-factor analysis of variance. t represented t-test results between the control group and the Sodium Salt L-ascorbic acid-6-O—(S)-ibuprofen ester.

Solubility ([1]; in chloroform) | Solubility ([1]; in cyclohexane) | Solubility ([1]; in ethanol) | Solubility ([1]; in methanol) | Solubility ([1]; in propylene glycol) | Solubility ([1]; in water) | solubility in water ([1]; water) [g] | Structure (SMILES) | thrombus wet weight/body weight × 100 ([2]; 1 h after last administration, 15 min loop flow, x±s) | Thrombus inhibition rate ([2]; versus control group) [%]
insoluble | insoluble | soluble | soluble | soluble | insoluble |  | CC(C)Cc1ccc([C@H](C)C(=O)OC[C@H](O)[C@H]2OC(=O)C(O)=C2O)cc1 [Embodiment 1, L-Ascorbic Acid-6-O—(S)-Ibuprofen Ester] |  | 
 |  |  |  |  |  | 12.8 | CC(C)Cc1ccc([C@H](C)C(=O)OC[C@H](O)[C@H]2OC(=O)C(O)=C2[O-])cc1.[Na+] [Sodium Salt L-Ascorbic Acid-6-O—(S)-Ibuprofen Ester] | 10.372 ± 0.801 | 12.9
